# Measured values: patent US7524847B2, “Fused 1,3-dihydro-imidazole ring compounds” (Eisai R&D Management Co., Ltd., priority 2002, dated 2009)
# Where a name gives a salt, the structure may show the parent alone.
# Biological target: T1, DPP-IV obtained from pig kidney (Sus scrofa, UniProt P22411)
# T1 construct: DPP-IV obtained from pig kidney; from tissue; host or cells: pig kidney
# Assay: Measurement of DPPIV-inhibiting activity (in vitro experiment)
# Format: biochemical
# Conditions: DPP-IV from pig kidney 10 mU/mL, substrate Gly-Pro-p-nitroanilide 0.33 mM, 20 min preincubation, 20 min reaction, absorbance 405 nm
# Method: DPP-IV obtained from pig kidney was dissolved in a reaction buffer (50 mM Tris-HCl pH7.4, 0.1% BSA) at 10 mU/mL, and 110 μL of this was used. 15 μL of the drug obtained from the aforementioned Examples was added, and this was incubated at room temperature for 20 minutes, and then 25 μL of a 2 mM solution of Gly-Pro-p-nitroanilide (final concentration 0.33 mM) was added to start the enzymatic reaction. The reaction time was 20 minutes, and 1 N phosphoric acid solution (25 μL) was added to stop the reaction.
# T1 sequence (P22411 whole entry): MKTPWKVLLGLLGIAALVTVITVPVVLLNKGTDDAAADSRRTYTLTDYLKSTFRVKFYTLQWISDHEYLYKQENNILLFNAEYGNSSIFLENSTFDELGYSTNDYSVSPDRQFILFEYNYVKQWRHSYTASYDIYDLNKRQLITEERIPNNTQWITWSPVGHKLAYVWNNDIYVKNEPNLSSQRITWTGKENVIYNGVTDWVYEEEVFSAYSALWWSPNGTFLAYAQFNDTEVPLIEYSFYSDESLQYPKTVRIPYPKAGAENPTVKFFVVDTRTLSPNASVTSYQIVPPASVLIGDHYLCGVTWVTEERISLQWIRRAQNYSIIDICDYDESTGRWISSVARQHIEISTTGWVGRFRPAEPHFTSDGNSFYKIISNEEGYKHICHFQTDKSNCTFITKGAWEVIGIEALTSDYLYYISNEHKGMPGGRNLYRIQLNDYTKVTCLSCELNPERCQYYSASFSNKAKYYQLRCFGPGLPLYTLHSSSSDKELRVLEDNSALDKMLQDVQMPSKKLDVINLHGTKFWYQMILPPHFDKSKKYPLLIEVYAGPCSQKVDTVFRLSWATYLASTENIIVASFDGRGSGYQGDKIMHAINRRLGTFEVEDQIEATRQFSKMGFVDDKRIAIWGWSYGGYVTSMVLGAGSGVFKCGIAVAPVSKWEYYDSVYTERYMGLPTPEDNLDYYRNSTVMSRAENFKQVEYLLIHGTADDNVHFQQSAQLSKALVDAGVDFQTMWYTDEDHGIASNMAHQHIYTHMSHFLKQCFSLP
row,SMILES,IC50 [nM]
1,"CC#CCn1c(=O)n(CC2CC2)c2nc(Cl)nc(N3CCNCC3)c21 [Example 38, 7-(2-Butynyl)-2-chloro-9-cyclopropylmethyl-6-(piperazin-1-yl)-7,9-dihydropurin-8-one trifluoroacetic acid salt]",150
2,"CC#CCn1c(=O)n(Cc2ccccc2C(N)=O)c2nc(Cl)nc(N3CCNCC3)c21 [Example 39, 2-[7-(2-Butynyl)-2-chloro-8-oxo-6-(piperazin-1-yl)-7,8-dihydropurin-9-ylmethyl]benzamide trifluoroacetic acid salt]",32.3
3,"CC#CCn1c(=O)n(CC(=O)OC)c2nc(Cl)nc(N3CCNCC3)c21 [Example 40, [7-(2-Butynyl)-2-chloro-8-oxo-6-(piperazin-1-yl)-7,8-dihydropurin-9-yl]acetic acid methyl ester trifluoroacetic acid salt]",89.6
4,"CC#CCn1c(=O)n(-c2ccccc2)c2nc(Cl)nc(N3CCNCC3)c21 [Example 41, 7-(2-Butynyl)-2-chloro-9-phenyl-6-(piperazin-1-yl)-7,9-dihydropurin-8-one trifluoroacetic acid salt]",91.7
5,"CC#CCn1c(=O)n(-c2ccc(C#N)cc2)c2nc(Cl)nc(N3CCNCC3)c21 [Example 42, 4-[7-(2-Butynyl)-2-chloro-8-oxo-6-(piperazin-1-yl)-7,8-dihydropurin-9-yl]benzonitrile trifluoroacetic acid salt]",42.5
6,"CC#CCn1c(=O)n(-c2ccc(OC)cc2)c2nc(Cl)nc(N3CCNCC3)c21 [Example 43, 7-(2-Butynyl)-2-chloro-9-(4-methoxyphenyl)-6-(piperazin-1-yl)-7,9-dihydropurin-8-one trifluoroacetic acid salt]",67.8
7,"CC#CCn1c(=O)n(-c2ccoc2)c2nc(Cl)nc(N3CCNCC3)c21 [Example 44, 7-(2-Butynyl)-2-chloro-9-(furan-3-yl)-6-(piperazin-1-yl)-7,9-dihydropurin-8-one trifluoroacetic acid salt]",132
8,"CC#CCn1c(=O)n(-c2ccsc2)c2nc(Cl)nc(N3CCNCC3)c21 [Example 45, 7-(2-Butynyl)-2-chloro-6-(piperazin-1-yl)-9-(thiophen-3-yl)-7,9-dihydropurin-8-one trifluoroacetic acid salt]",130
9,"CC#CCn1c(=O)n(Cc2ccc(C#N)cc2)c2nc(OC)nc(N3CCNCC3)c21 [Example 49, 4-[7-(2-Butynyl)-2-methoxy-8-oxo-6-(piperazin-1-yl)-7,8-dihydropurin-9-ylmethyl]benzonitrile trifluoroacetic acid salt]",40
10,"CC#CCn1c(=O)n(Cc2ccccc2C#N)c2nc(OC)nc(N3CCNCC3)c21 [Example 50, 2-[7-(2-Butynyl)-2-methoxy-8-oxo-6-(piperazin-1-yl)-7,8-dihydropurin-9-ylmethyl]benzonitrile trifluoroacetic acid salt]",3.65
11,"CC#CCn1c(=O)[nH]c2nc(OC)nc(N3CCNCC3)c21 [Example 53, 7-(2-Butynyl)-2-methoxy-6-(piperazin-1-yl)-7,9-dihydropurin-8-one trifluoroacetic acid salt]",1370
12,"CC#CCn1c(=O)n(-c2cccnc2)c2nc(OC)nc(N3CCNCC3)c21 [Example 55, 7-(2-Butynyl)-2-methoxy-6-(piperazin-1-yl)-9-(pyridin-3-yl)-7,9-dihydropurin-8-one trifluoroacetic acid salt]",37.2
13,"CC#CCn1c(=O)n(-c2ccsc2)c2nc(OC)nc(N3CCNCC3)c21 [Example 57, 7-(2-Butynyl)-9-(thiophen-3-yl)-2-methoxy-6-(piperazin-1-yl)-7,9-dihydropurin-8-one trifluoroacetic acid salt]",77.5
14,"C=Cc1ccc(-n2c(=O)n(CC#CC)c3c(N4CCNCC4)nc(OC)nc32)cc1 [Example 58, 7-(2-Butynyl)-2-methoxy-6-(piperazin-1-yl)-9-(4-vinyl-phenyl)-7,9-dihydropurin-8-one trifluoroacetic acid salt]",15.6
15,"C=CCn1c(=O)n(CC#CC)c2c(N3CCNCC3)nc(OCC)nc21 [Example 59, 9-Allyl-7-(2-butynyl)-2-ethoxy-6-(piperazin-1-yl)-7,9-dihydropurin-8-one trifluoroacetic acid salt]",119
16,"C=CCn1c(=O)n(CC#CC)c2c(N3CCNCC3)nc(Oc3ccccc3C(N)=O)nc21 [Example 60, 2-[9-Allyl-7-(2-butynyl)-8-oxo-6-(piperazin-1-yl)-8,9-dihydro-7H-purin-2-yloxy]benzamide trifluoroacetic acid salt]",119
17,"CC#CCn1c(=O)n(-c2ccccc2)c2ncnc(N3CCNCC3)c21 [Example 62, 7-(2-Butynyl)-9-phenyl-6-(piperazin-1-yl)-7,9-dihydropurin-8-one trifluoroacetic acid salt]",139
18,"CC#CCn1c(=O)n(-c2ccoc2)c2ncnc(N3CCNCC3)c21 [Example 63, 7-(2-Butynyl)-9-(furan-3-yl)-6-(piperazin-1-yl)-7,9-dihydropurin-8-one trifluoroacetic acid salt]",146
19,"CC#CCn1c(=O)n(-c2ccc(OC)nc2)c2ncnc(N3CCNCC3)c21 [Example 66, 7-(2-Butynyl)-9-(6-methoxy-pyridin-3-yl)-6-(piperazin-1-yl)-7,9-dihydropurin-8-one trifluoroacetic acid salt]",59.3
20,"CC#CCn1c(=O)n(-c2ccc(=O)[nH]c2)c2ncnc(N3CCNCC3)c21 [Example 67, 7-(2-Butynyl)-9-(6-oxo-16-dihydro-pyridin-3-yl)-6-(piperazin-1-yl)-7,9-dihydropurin-8-one trifluoroacetic acid salt]",49.8
21,"CC#CCn1c(=O)n(-c2ccc(=O)n(C)c2)c2ncnc(N3CCNCC3)c21 [Example 68, 7-(2-Butynyl)-9-(1-methyl-6-oxo-1,6-dihydro-pyridin-3-yl)-6-(piperazin-1-yl)-7,9-dihydropurin-8-one trifluoroacetic acid salt]",187
22,"C#CCn1c(=O)n(CC#CC)c2c(N3CCNCC3)ncnc21 [Example 70, 7-(2-Butynyl)-6-(piperazin-1-yl)-9-(2-propynyl)-7,9-dihydropurin-8-one trifluoroacetic acid salt]",94.8
23,"CC#CCn1c(=O)n(CC(N)=O)c2ncnc(N3CCNCC3)c21 [Example 71, 2-[7-(2-Butynyl)-8-oxo-6-(piperazin-1-yl)-7,8-dihydropurin-9-yl]acetamide trifluoroacetic acid salt]",260
24,"CC#CCn1c(=O)n(CC2CC2)c2ncnc(N3CCNCC3)c21 [Example 72, 7-(2-Butynyl)-9-cyclopropylmethyl-6-(piperazin-1-yl)-7,9-dihydropurin-8-one trifluoroacetic acid salt]",141
25,"CC#CCn1c(=O)n(Cc2ccc(C#N)cc2)c2ncnc(N3CCNCC3)c21 [Example 73, 4-[7-(2-Butynyl)-8-oxo-6-(piperazin-1-yl)-7,8-dihydropurin-9-ylmethyl]benzonitrile trifluoroacetic acid salt]",48.4
26,"CC#CCn1c(=O)n(CCc2ccccc2)c2ncnc(N3CCNCC3)c21 [Example 74, 7-(2-Butynyl)-9-phenethyl-6-(piperazin-1-yl)-7,9-dihydropurin-8-one trifluoroacetic acid salt]",14
